Experimental data published in patent publication US20180282279A1, “Pantothenamide Analogues” (Radboud Universitair Medisch Centrum, priority 2014, published 2018).
In brackets after ≈: the same amount, converted by molar mass. Like-named read-outs stand apart in the source and are kept apart here.

Experiments:
[1] = system: Staphylococcus epidermidis; assay: Bacterial growth assay and MIC determination, S. epidermidis; assay type: cell-based; details: for MIC: Staphylococcus epidermidis
Protocol: (§1) Strains of Escherichia coli, Staphylococcus aureus and Staphylococcus epidermidis, were grown overnight in 1% Bacto tryptone medium (BD, Sparks, Md.). Streptococcus pyogenes was grown overnight in Bacto Todd Hewitt Broth medium (BD, Sparks, Md.). Cultures were then diluted 1:1,000 in fresh assay medium supplemented with or without 20% fetal bovine serum (FBS; HyClone, Celbio, Logan, Utah) and added to 96-well sterile enzyme-linked immunosorbent assay (ELISA) plates (100 μl per well). The compounds to be tested were diluted in the medium without serum and added to the bacteria (100 μl per well). Plates were incubated at 37° C., and bacterial growth was monitored over time by reading the optical density at 490 nm using a microplate reader (model 450; Bio-Rad Laboratories Inc., Hercules, Calif.). Streptococcus pneumoniae strains were grown to mid-log phase (OD620 of 0.3) and stored in 15% glycerol at […] till further use. Minimal inhibitory concentration (MIC) of antibiotics was determined according to standard procedures. Bacteria were diluted 10-fold in Mueller-Hinton medium (BD, Sparks, Md.) and added to 96-well sterile ELISA plates (150 μl per well). The compounds to be tested were diluted in the medium without serum and added to the bacteria (150 μl per well). Plates were incubated overnight at 37° C. in 5% CO2. The MIC was defined as the lowest concentration of compound at which no growth was visible with the naked eye.

Streptococcus pneumoniae = assay: MIC determination, S. pneumoniae; assay type: cell-based; details: for MIC: Streptococcus pneumoniae
Protocol: Streptococcus pneumoniae strains were grown to mid-log phase (OD620 of 0.3) and stored in 15% glycerol at […] till further use. Minimal inhibitory concentration (MIC) of antibiotics was determined according to standard procedures. Bacteria were diluted 10-fold in Mueller-Hinton medium (BD, Sparks, Md.) and added to 96-well sterile ELISA plates (150 μl per well). The compounds to be tested were diluted in the medium without serum and added to the bacteria (150 μl per well). Plates were incubated overnight at 37° C. in 5% CO2. The MIC was defined as the lowest concentration of compound at which no growth was visible with the naked eye.

Escherichia coli = assay: Bacterial growth assay and MIC determination, E. coli; assay type: cell-based; details: Escherichia coli, serum −, read-out: MIC
Protocol: as §1

Streptococcus pyogenes = assay: Bacterial growth assay and MIC determination, S. pyogenes; assay type: cell-based; details: Streptococcus pyogenes
Protocol: as §1

Staphylococcus aureus = assay: Bacterial growth assay and MIC determination, S. aureus; assay type: cell-based; details: for antibiotic activity when tested in the presence of serum: 10% serum; for MIC: Staphylococcus aureus
Protocol: as §1

[2] = system: Plasmodium falciparum NF54 parasites; assay: P. falciparum asexual blood stage replication assay (SYBR Green); assay type: cell-based; details: NF54, 10% human serum, 72 incubation
Protocol: Compounds were tested on their ability to inhibit replication of the human malaria parasite Plasmodium falciparum. To this end, Plasmodium falciparum NF54 parasites were cultured in RPMI1640 medium supplemented with 367 μM hypoxanthine, 25 mM HEPES, 25 mM sodiumbicarbonate and 10% human type A serum in an automated large-scale culture system as described before (Transactions of the Royal Society of Tropical Medicine and Hygiene, 1982. 76: p. 812-818). Compounds were diluted in DMSO and subsequently in culture medium to reach a DMSO concentration of 0.2%. 50 μl of diluted compound was transferred to a black 96 well plate. A culture of P. falciparum strain NF54 malaria parasites was diluted to a parasitaemia of 0.5% and a hematocrit of 3%. 50 μl of this diluted culture was added to each well in the 96 well plate._The outermost wells of the plate were filled with sterile water to prevent evaporation. The established antimalarial dihydroartemisinin (DHA) in DMSO acted as a positive control (MIN signal), and 0.1% DMSO acted as a negative control (MAX signal). The plates were incubated for 72 at 37° C., 3% 02, 5% CO2, 93% N2. Changes in parasite replication relative to the controls were monitored using the DNA-marker SYBR Green as described previously (Antimicrob Agents Chemother 48:1803-6). Data were analyzed by logistic regression using the formula: Y=Bottom+(Top-Bottom)/(1+10̂((Log IC50−X)*HillSlope)) and a least squares method to find the best fit.
Using similar methods, IC50 values were determined for a variety of inverted pantothenamides, as listed in table 1 (see section: ‘Detailed description of the invention’)

[3] = Pharmacokinetic study in rats; assay type: in vivo; details: rat, blood, 50 mg/kg in saline, oral administration
Protocol: To address the question if increased stability would also lead to improved bioavailability in vivo, a pharmacokinetic study was performed. Briefly, the pantothenamides N5-Pan (an antibacterial compound) and CXP18.3-002 (an antimalarial compound), and their corresponding inverted amides CXP18.6-013 and CXP18.6-006 were administered to rats at 50 mg/kg dissolved in saline. Blood samples were collected from 3 rats before the experiment and at 0.25, 0.5, 1, 2, 4, 6, 8, 12 and 24 h. The concentrations of the compounds were analyzed by LC-MS/MS (AB Sciex API-4000 system). Data were analyzed by the Non-compartmental analysis tool of Phoenix WinNonlin (Version 6.3).

[4] = system: P. falciparum gametocytes; assay: Gametocyte female gametogenesis capacity assay (Pfs25 AlphaLISA); assay type: cell-based; details: Plasmodium falciparum; 72 hours incubation, Table 3; read-out: Gametocyte gametogenesis capacity (Pfs25) IC50
Protocol: To monitor compound effects on the ability of a gametocyte to form a female gamete, day 11 (stage IV) gametocytes were seeded at a density of 4×10^5 gametocytes per well in a V-bottom plate in 50 μl culture medium. 50 μl of diluted compound was added to the gametocytes (0.1% DMSO final concentration) and plates were incubated for 72 hours at 37° C., 98% humidity, 93% N2, 4% CO2 and 3% O2. Subsequently, gametogenesis was induced by adding xanthurenic acid to a final concentration of 40 μM and plates were incubated for 16 hours at 20° C. Gametes were detected in a homogeneous proximity immunoassay on basis of Pfs25 expression by use of AlphaLISA technology (Perkin Elmer). All steps were performed at 20° C. Gametes were washed twice with PBS, lysed for 15 min in 10 μl 10 mM Tris pH 8.0/1% laurylsarcosyl/1 mM phenylmethanesulfonyl fluoride and combined with 10 μl 5 nM biotinylated mouse anti-Pfs25 monoclonal antibody 32F6244 in a white 384 well optiplate (Perkin Elmer). After 1 hour incubation 15 μl of 33 μg/ml acceptorbeads coated with mouse anti-Pfs25 monoclonal antibody 32F81 were added. After 1 hour incubation, 15 μl 33 μg/ml Streptavidin-conjugated donorbeads were added. Finally, after 1 hour incubation luminescence signals were monitored at the 615 nm emission wavelength following excitation at 680 nm using a fluorometer (Biotek Synergy 2). All compounds were tested in duplicate (24 hr) or triplicate (1 and 72 hr). Controls included MIN (0.1 μM epoxomicin) and MAX (0.1% DMSO). Data were analyzed by logistic regression using the formula: Y=Bottom+(Top−Bottom)/(1+10̂((Log IC50−X)*HillSlope)) and a least squares method to find the best fit.

[5] = system: P. falciparum gametocytes; assay: microbe, parasite or virus in culture; assay type: cell-based, Plasmodium falciparum; details: Plasmodium falciparum; 72 hour incubation; read-out: Gametocyte viability (pLDH) IC50
Protocol: Compounds were tested for their ability to affect the viability of gametocytes, the sexually committed blood stages of P. falciparum that underlie transmission to the mosquito vector. To this end, two different assays were performed. The first assay monitored pLDH activity as a measure of viability of gametocytes (J Antimicrob Chemother. 2013 September; 68(9):2048-58). The second assay monitored the ability of gametocytes to form a female gamete by detection of the gamete-specific marker Pfs25. Plasmodium falciparum NF54 parasites were cultured in RPMI1640 medium supplemented with 367 μM hypoxanthine, 25 mM HEPES, 25 mM sodiumbicarbonate and 10% human type A serum in an automated large-scale culture system as described before (Transactions of the Royal Society of Tropical Medicine and Hygiene, 1982. 76: p. 812-818). Cultures were treated with 50 mM N-acetyl-D-glucosamine from day 4 till day 9 to kill asexual parasites. On day 11 gametocytes were isolated by discontinuous 63% Percoll gradient centrifugation. Compounds were diluted in DMSO and subsequently in culture medium to reach a DMSO concentration of 0.2%. To measure the effect of compounds of pLDH activity, gametocytes were seeded at a density of 3.5×10^4 gametocytes per well in a black 384 well plate in 30 μl of culture medium, and 30 μl of diluted compound was added. Following a 72 hour incubation at 37° C., 98% humidity, 93% N2, 4% CO2 and 3% O2, gametocyte viability was measured by a modified plasmodium lactate dehydrogenase assay by using resazurin as a substrate as previously described (Nature, 2013. 504(7479): p. 248-53). Assays were performed in quadruplicate (two different plates with two different gametocyte batches) and all plates included controls MIN (1 μM DHA), MAX (0.1% DMSO) and a serial dilution of reference compound dihydroartemisinin (DHA).

[6] = system: S. aureus (SA), S. epidermidis (SE), S. pyogenes (SP), S. pneumoniae (SPn); assay: MIC for most sensitive bacterial species (panel); assay type: cell-based; details: Streptococcus pneumoniae; Table 1; no species named; marked *: not tested for S. pneumoniae; read-out: MIC (μg/ml) for most sensitive bacterial species
Protocol: as §1

[7] = S. epidermidis, serum −, read-out: MIC
[8] = S. pneumoniae, serum −, read-out: MIC
[9] = S. pyogenes, serum −, read-out: MIC
[10] = S. aureus, serum + (10% serum), read-out: MIC
[11] = S. aureus, serum −, read-out: MIC
[12] = Table 1, most sensitive species S. aureus (SA), read-out: MIC (μg/ml) for most sensitive bacterial species
[13] = Table 1, most sensitive species S. epidermidis (SE), read-out: MIC (μg/ml) for most sensitive bacterial species
[14] = Table 1, most sensitive species S. pyogenes (SP), read-out: MIC (μg/ml) for most sensitive bacterial species

SMILES | MIC [1, 7] [µg/mL] | MIC (Streptococcus pneumoniae; [8]) [µg/mL] | MIC (Escherichia coli) [µg/mL] | MIC (Streptococcus pyogenes; [9]) [µg/mL] | antibiotic activity when tested in the presence of serum (Staphylococcus aureus; S. aureus) | MIC (Staphylococcus aureus; [10]) [µg/mL] | MIC (Staphylococcus aureus; [11]) [µg/mL] | MIC (Staphylococcus aureus; [12]) [µg/mL] | IC50 [2] [µM] | MIC [1, 13] [µg/mL] | MIC (Streptococcus pyogenes; [14]) [µg/mL] | IC50 [4] [nM] | IC50 [5] [nM] | other results
CCCCCCCC(=O)NCCNC(=O)[C@H](O)C(C)(C)CO [CXP18.6-012] | 16 (≈ 50.6 µM) | > 32 | > 256 | 32 (≈ 101 µM) | retained activity | 4 | 1 (≈ 3.16 µM) | 1 (≈ 3.16 µM) | 0.34 | – | – | – | – | activity of inverted pantothenamide compared to the parent compound (Streptococcus pneumoniae; S. pneumoniae): loss of activity
CCCCCC(=O)NCCNC(=O)[C@H](O)C(C)(C)CO [CXP18.6-013] | 1 (≈ 3.47 µM) | 4 (≈ 13.9 µM) | > 256 | 2 (≈ 6.94 µM) | – | – | 32 (≈ 111 µM) | – | 0.63 | 1 (≈ 3.47 µM) | – | – | – | activity of inverted pantothenamide compared to the parent compound ([1]; S. epidermidis): gain of antimicrobial activity; MIC (Streptococcus pneumoniae; Table 1, S. pneumoniae (SPn), read-out: MIC (μg/ml) for most sensitive bacterial species): 4 µg/mL (≈ 13.9 µM); AUC(0-inf) [3]: 11600 ng·h/mL; Cmax [3]: 12100 ng/mL; Tmax [3]: 0.33 h; half-life ([3]; elimination phase): 5.9 h
CCCCCCCCCC(=O)NCCNC(=O)[C@H](O)C(C)(C)CO [CXP18.6-014] | 1 (≈ 2.9 µM) | > 32 | > 256 | 32 (≈ 92.9 µM) | retained activity | 1 | 1 (≈ 2.9 µM) | 1 (≈ 2.9 µM) | 7.5 | 1 (≈ 2.9 µM) | – | – | – | –
CC(C)(CO)[C@@H](O)C(=O)NCCNC(=O)CCc1ccsc1 [CXP18.6-046] | – | – | – | – | – | – | – | – | 0.057 | – | 32 (≈ 97.4 µM) | 401 | > 10000 | –
CC(C)(CO)[C@@H](O)C(=O)NCCNC(=O)CCc1cccs1 [CXP18.6-047] | – | – | – | – | – | – | – | – | 0.1 | – | 8 (≈ 24.4 µM) | 168 | > 10000 | –
CC(C)(CO)[C@@H](O)C(=O)NCCNC(=O)CCc1ccncc1 [CXP18.6-056] | – | – | – | – | – | – | – | – | 0.47 | – | – | – | – | MIC [6]: > 32 µg/mL
